This is an account of results in PMC8160934, “Different Biological Activities of Histidine-Rich Peptides Are Favored by Variations in Their Design” (Toxins, 2021).

Experiment [1] relates to E. coli bacteria (ATCC 25922). Description: Broth microdilution antibacterial assay (MIC) in Mueller–Hinton broth, pH 5. It is filed as cell-based. As to conditions: for MIC: E. coli ATCC 25922, broth microdilution, Mueller–Hinton broth pH 5, 37 °C, 12 h, OD600, concentration at which bacterial growth reaches a minimum (at least 80% inhibited), average of two experiments, each in triplicate; for MIC50: E. coli, Mueller–Hinton broth pH 5, x50 from Origin fits of the growth curves of Figure 3 (concentration range 100 µM to 0.52 µM), fit error given, * error estimated in the range of the 1.5-fold dilution steps. As for the experimental part: Therefore, the antibacterial properties of both series of peptides were analyzed in Mueller–Hinton (MH) broth at pH 5 by determining the minimal inhibitory concentrations (MICs).
Figure 3 Bacterial growth as a function of peptide concentration for the LAH4-Ln (A) and the LAH4-An series (B). The average of two experimental data sets (each data point derived from triplicates under the same experiment conditions) covering the concentration range 100 µM to 0.52 µM are shown by the relative bacterial growth when compared to bacteria in the absence of peptide (=100%). To guide the eye, the data have been fitted with the function ymin + (ymax − ymin)/(1 + (x/xo)^p)^s using the OriginPro software. […] The assay was performed in Mueller–Hinton broth, pH 5.
A broth microdilution assay was used to determine the minimal inhibitory concentration (MIC). A peptide aliquot of 1 mg was first solubilized in 50% ethanol (10 mM) then diluted in H2O to get a 300 μM peptide stock solution.
For all the activity tests, E. coli bacteria (ATCC® 25922^TM, Thermo Fisher Scientific, Courtaboeuf, France) were used. Briefly, some colonies from E. coli spread on gelose were resuspended in Mueller–Hinton broth, pH 7.4. After incubation at 37 °C for about 6 h this preculture was diluted to OD550nm = 0.2 in MH at pH5 and allowed to grow to reach the exponential phase (OD550nm = 1–2). After two-step dilution in MH pH5, the working bacteria suspension corresponding to 1.10^5–2.10^5 colony-forming units (CFU)/mL was obtained.
The antimicrobial testing was carried out in 96-well microplates (sterile polystyrene untreated with F-bottom, Thermo Scientific Nunc A/S, Roskilde, Denmark). The first column of the plate contains the highest final concentration (Cf) of peptide to test (two experiments were done: the first one starting at Cf 100 μM and a second one starting at 30 μM). All samples were added to the first column of the plate and subsequently spread onto the plate by a 1.5-fold dilution series in 10 steps. The last columns correspond to the positive and negative control conditions, respectively. Finally, the bacterial working suspension was distributed (50 μL at 1.10^5–2.10^5 CFU/mL in MH1X at pH 5) to each well except for the negative control (MH1X at pH5). The final volume was 100 μL/well and the range of peptide concentrations tested was from 100 μM to 1.73 μM for the first experiment and from 30 μM to 0.52 μM for the second experiment. The microplates were incubated at 37 °C for 12 h before bacterial growth was assessed by measuring the OD600. The initial bacterial density for each experiment was checked by spreading 100 μL of the working bacterial suspension, diluted 1/100 and 1/500 in MH1X, pH 5 on MH agar plates. After overnight incubation at 37 °C, the CFU were counted and the CFU/mL were determined. The percentage of bacterial growth compared to the positive control allows one to determine the MIC. The MIC values represent the average of the lowest tested peptide concentration (from both experiments) where most (at least 80%) of the bacterial growth is inhibited.

Experiment [2] deals with U87 cells. Description: DNA transfection with p-Luc plasmid, luciferase expression. As to conditions: 1.5 µg pDNA with 7.5-25 µg peptide, 2 h 30 min, read one day post-transfection, mean of duplicates, result in words.
Description: In vitro cell transfection experiments were performed using the plasmid p-Luc (7.6 kb), which is an expression plasmid encoding the firefly luciferase gene under the control of the human cytomegalovirus (CMV) immediate–early promoter. In total, 55,000 U87 cells were plated in 48-well plates one day before the experiment was performed. For transfection, 0.25 mL of serum-free culture medium containing the DNA complexes was deposited into each well of the duplicate. After incubation for approximately 2 h 30 min at 37 °C the medium was replaced with a fresh one containing serum. Luciferase activity was measured as described below in the cell lysate one day after transfection.
Transfection complexes were prepared as follows: for a duplicate, 1.5 μg of plasmid DNA and the desired amount of peptide were each diluted into 25 μL of acetate buffer pH 5 and gently mixed. DNA complexes were generated using increasing peptide/DNA w/w ratios. After 20 min of incubation at room temperature, the mixture was diluted with culture medium to obtain a final volume of 0.5 mL.
For luciferase activity, cells were harvested in 100 μL of lysis buffer (8 mM MgCl2, 1 mM DTT, 1 mM EDTA, 0.6% Triton X-100, 15% glycerol, and 25 mM Tris-phosphate buffer pH 7.8). The cell lysate was then transferred into Eppendorf tubes and centrifuged for 7 min at 10,000× g to pellet debris. Luciferase light units were measured in a 96-well plate format with a Centro LB luminometer (Berthold) from an aliquot of the supernatant (2 μL) with 1 s integration after automatic injection of 50 μL assay buffer (lysis buffer without Triton X-100 but supplemented with 2 mM ATP) and 50 μL of a luciferin solution (167 μM in water). Luciferase background was subtracted from each value and the protein content of the transfected cells was measured by Bradford dye-binding using the BioRad protein assay (Bio-Rad). The transfection efficiency was expressed as light units/s/mg protein (light units measured over a period of 1 s, and the values were then normalized after measurement of the amount of protein present in each well). The reported values are the mean of duplicates. Error bars represent the standard deviation of the mean.
glioblastoma U87 cells. Increasing amounts of peptide were mixed with a constant amount of reporter
plasmid (1.5 µg per duplicate of pDNA) and the complexes were incubated for 2h 30min with the
cells plated in 48-well plates. The transfection medium was then removed and replaced with fresh
culture medium supplemented with 10% serum. Luciferase activity was measured one day post-
transfection. The transfection efficiency is expressed as light units/s/mg protein and the reported
values are the mean of duplicates. Error bars represent the standard deviation of the mean.
For experiment [3], the system named is HCT116 cells. Description: Luciferase protein transduction. It is filed as cell-based, human. The note with it: HCT116, 2 µg recombinant luciferase with 10-32 µg peptide, 3 h in serum-free medium, mean of duplicates; result in words. On the procedure:
To perform a rapid screening of the protein transduction activities of the two series of peptides, we selected to deliver the luciferase protein from Photinus pyralis, which has a molecular weight (MW) of 62 kDa and an isoelectric point (pI) of 6.3. Indeed, the measurement of the activity of this enzyme is fast and very sensitive. […] Increasing amounts of peptides were added to a fixed amount of luciferase, and after 3 h of incubation with the human colon cancer cells HCT116, enzymatic activity was measured.
Figure 1 Transduction of the luciferase protein. HCT116 cells in 48-well plates were treated with 2 µg of recombinant luciferase (Rec. Luc) (per duplicate) in the presence or absence of LAH4 peptides (LAH4-Ln series in (A) and LAH4-An series in (B)). After 3 h of incubation in serum-free medium, cells were washed once with 1 mL/well of phosphate buffer saline (PBS), lysed, and the luciferase activity was determined. […] For each peptide, four conditions were tested: 10, 16, 24 and 32 µg of peptide/2 µg recombinant luciferase, except for LAH4 (16, 24 and 32 µg). Non-complexed recombinant luciferase was used as the control (black bar). The hydrophilic angles are shown in italics. […] It is uncertain whether it counts as a property result. The luciferase activities are shown only as bars, with no printed numbers, and are left out.
Protein complexes were generated using increasing peptide/protein w/w ratios.
Then, 0.25 mL of serum-free medium containing the peptide/protein complexes was transferred into each well. After an incubation time of 3 h at 37 °C the medium was removed, cells were washed once with 1 mL/well of PBS, and then 100 μL of lysis buffer was added per well. Luciferase activity and protein content were measured as described above.

In brackets after ≈: the same amount, converted by molar mass. Where a SMILES comes first, the peptide text is derived from it.

As a reminder, the MIC is the lowest concentration found to suppress growth. High values mean weaker potency, low ones greater potency. As usually defined, the MIC50 is an inhibitory concentration at the 50% level, which refers to growth in some studies and to a panel of isolates in others. In the case of `CC(C)C[C@H](NC(=O)[C@H](C)NC(=O)[C@H](Cc1c[nH]cn1)NC(=O)[C@H](C)NC(=O)[C@H](CC(C)C)NC(=O)[C@H](CC(C)C)NC(=O)[C@H](C)NC(=O)[C@H](CCCCN)NC(=O)[C@@H](N)CCCCN)C(=O)N[C@@H](C)C(=O)N[C@@H](Cc1c[nH]cn1)C(=O)N[C@@H](CC(C)C)C(=O)N[C@@H](C)C(=O)N[C@@H](CC(C)C)C(=O)N[C@@H](CC(C)C)C(=O)N[C@@H](C)C(=O)N[C@@H](CC(C)C)C(=O)N[C@@H](Cc1c[nH]cn1)C(=O)N[C@@H](CC(C)C)C(=O)N[C@@H](C)C(=O)N[C@@H](CC(C)C)C(=O)N[C@@H](Cc1c[nH]cn1)C(=O)N[C@@H](CC(C)C)C(=O)N[C@@H](CCCCN)C(=O)N[C@@H](CCCCN)C(=O)N[C@@H](C)C(N)=O` [LAH4-L0] (H-KKALLAHALAHLALLALHLALHLKKA-NH2), in experiment [1], the MIC came out at 6 µM (≈ 16.7 µg/mL) and the MIC50 is 3.1 µM (≈ 8.61 µg/mL).
In the same order, the values of `CC(C)C[C@H](NC(=O)[C@H](C)NC(=O)[C@H](C)NC(=O)[C@H](CC(C)C)NC(=O)[C@H](CC(C)C)NC(=O)[C@H](CC(C)C)NC(=O)[C@H](C)NC(=O)[C@H](CC(C)C)NC(=O)[C@H](Cc1c[nH]cn1)NC(=O)[C@H](CC(C)C)NC(=O)[C@H](CC(C)C)NC(=O)[C@H](C)NC(=O)[C@H](CCCCN)NC(=O)[C@@H](N)CCCCN)C(=O)N[C@@H](Cc1c[nH]cn1)C(=O)N[C@@H](C)C(=O)N[C@@H](Cc1c[nH]cn1)C(=O)N[C@@H](CC(C)C)C(=O)N[C@@H](C)C(=O)N[C@@H](C)C(=O)N[C@@H](CC(C)C)C(=O)N[C@@H](Cc1c[nH]cn1)C(=O)N[C@@H](CC(C)C)C(=O)N[C@@H](CCCCN)C(=O)N[C@@H](CCCCN)C(=O)N[C@@H](C)C(N)=O` [LAH4-L6] (H-KKALLHLALLLAALHAHLAALHLKKA-NH2) are “below 2 µM” and 0.9 µM (≈ 2.5 µg/mL).
As to “H-KKALLHALLAALLAHLHALLAHLKKA-NH2 [LAH4-A6, isomer of LAH4, LAH4-An series]”, the “DNA transfection activity (luciferase activity)” value in experiment [2] is on record as “high levels of activity”. Further, the MIC50 in experiment [1] is 2.9 µM.
On to `CC(C)C[C@H](NC(=O)[C@H](C)NC(=O)[C@H](C)NC(=O)[C@H](Cc1c[nH]cn1)NC(=O)[C@H](CC(C)C)NC(=O)[C@H](CC(C)C)NC(=O)[C@H](C)NC(=O)[C@H](CC(C)C)NC(=O)[C@H](Cc1c[nH]cn1)NC(=O)[C@H](CC(C)C)NC(=O)[C@H](CC(C)C)NC(=O)[C@H](C)NC(=O)[C@H](CCCCN)NC(=O)[C@@H](N)CCCCN)C(=O)N[C@@H](CC(C)C)C(=O)N[C@@H](C)C(=O)N[C@@H](Cc1c[nH]cn1)C(=O)N[C@@H](CC(C)C)C(=O)N[C@@H](C)C(=O)N[C@@H](C)C(=O)N[C@@H](CC(C)C)C(=O)N[C@@H](Cc1c[nH]cn1)C(=O)N[C@@H](CC(C)C)C(=O)N[C@@H](CCCCN)C(=O)N[C@@H](CCCCN)C(=O)N[C@@H](C)C(N)=O` [LAH4-L5] (H-KKALLHLALLHAALLAHLAALHLKKA-NH2), for which, in experiment [3], the “luciferase protein transduction efficiency (luciferase activity, light units/s/mg protein)” value was “the most efficient peptides”. In addition, in experiment [1], the MIC result is listed as “below 2 µM” and the MIC50 is 1.2 µM (≈ 3.33 µg/mL).
Consider `CC(C)C[C@H](NC(=O)[C@H](C)NC(=O)[C@H](C)NC(=O)[C@H](CC(C)C)NC(=O)[C@H](CC(C)C)NC(=O)[C@H](Cc1c[nH]cn1)NC(=O)[C@H](CC(C)C)NC(=O)[C@H](C)NC(=O)[C@H](Cc1c[nH]cn1)NC(=O)[C@H](C)NC(=O)[C@H](CC(C)C)NC(=O)[C@H](CC(C)C)NC(=O)[C@H](C)NC(=O)[C@H](CCCCN)NC(=O)[C@@H](N)CCCCN)C(=O)N[C@@H](C)C(=O)N[C@@H](CC(C)C)C(=O)N[C@@H](Cc1c[nH]cn1)C(=O)N[C@@H](CC(C)C)C(=O)N[C@@H](C)C(=O)N[C@@H](Cc1c[nH]cn1)C(=O)N[C@@H](CC(C)C)C(=O)N[C@@H](CC(C)C)C(=O)N[C@@H](CCCCN)C(=O)N[C@@H](CCCCN)C(=O)N[C@@H](C)C(N)=O` [LAH4-A1] (H-KKALLAHALHLLAALALHLAHLLKKA-NH2), for which the “DNA transfection activity (luciferase activity)” value in experiment [2] is listed as “highest activity”. For the same molecule, the “luciferase protein transduction efficiency (luciferase activity, light units/s/mg protein)” value in experiment [3] is “among the least efficient”. For the same molecule, in experiment [1], the MIC was 25 µM (≈ 69.5 µg/mL) and the MIC50 was 13.9 µM (≈ 38.6 µg/mL).
As to “H-KKALLALALHHLALLALHLAHALKKA-NH2 [LAH4-L2, isomer of LAH4, LAH4-Ln series]”, the “luciferase protein transduction efficiency (luciferase activity, light units/s/mg protein)” value in experiment [3] is on record as “the most efficient peptides”. For the same molecule, the MIC50 in experiment [1] was 4.7 µM.
On to “H-KKALLLAALHHLLALAHHLAALLKKA-NH2 [LAH4-A3, isomer of LAH4, LAH4-An series]”, for which the MIC50 in experiment [1] was 7.5 µM.
Take “H-KKALLLAALHHLAALALHLAHLLKKA-NH2 [LAH4-A2, isomer of LAH4, LAH4-An series]”: the “luciferase protein transduction efficiency (luciferase activity, light units/s/mg protein)” value in experiment [3] is listed as “the most efficient peptides”. In addition, the MIC50 in experiment [1] is 5 µM.
Consider “H-KKALLALALHHLALLAHHLALALKKA-NH2 [LAH4-L3, isomer of LAH4, LAH4-Ln series]”, for which the MIC50 in experiment [1] was 1.4 µM.
On the same count and under the same terms, as for `CC(C)C[C@H](NC(=O)[C@H](C)NC(=O)[C@H](CC(C)C)NC(=O)[C@H](Cc1c[nH]cn1)NC(=O)[C@H](Cc1c[nH]cn1)NC(=O)[C@H](C)NC(=O)[C@H](CC(C)C)NC(=O)[C@H](CC(C)C)NC(=O)[C@H](C)NC(=O)[C@H](C)NC(=O)[C@H](Cc1c[nH]cn1)NC(=O)[C@H](CC(C)C)NC(=O)[C@H](CC(C)C)NC(=O)[C@H](C)NC(=O)[C@H](CC(C)C)NC(=O)[C@H](Cc1c[nH]cn1)NC(=O)[C@H](CC(C)C)NC(=O)[C@H](CC(C)C)NC(=O)[C@H](C)NC(=O)[C@H](CCCCN)NC(=O)[C@@H](N)CCCCN)C(=O)N[C@@H](C)C(=O)N[C@@H](CC(C)C)C(=O)N[C@@H](CCCCN)C(=O)N[C@@H](CCCCN)C(=O)N[C@@H](C)C(N)=O` [LAH4-L4] (H-KKALLHLALLHAALLAHHLALALKKA-NH2), the figure is 0.8 µM (≈ 2.22 µg/mL).
